# Assay results published in PubChem BioAssay AID1259407 (Chemical Carcinogenesis Research Information System (CCRIS), 2018).
# Calls of active or inactive are those of the source. The rule behind the calls is not given here.
# System: CCRIS mutagenicity, Ames/micronucleus/aberration tests
# Assay: CCRIS mutagenicity studies
# [1] = Test System: AMES SALMONELLA TYPHIMURIUM, Strain/Indicator: TA100, Metabolic Activation: NONE, Method: STANDARD PLATE
# [2] = Test System: AMES SALMONELLA TYPHIMURIUM, Strain/Indicator: TA98, Metabolic Activation: RAT, LIVER, S-9, AROCLOR 1254, Method: STANDARD PLATE
# [3] = Test System: AMES SALMONELLA TYPHIMURIUM, Strain/Indicator: TA100, Metabolic Activation: RAT, LIVER, S-9, AROCLOR 1254, Method: STANDARD PLATE
# [4] = Test System: AMES SALMONELLA TYPHIMURIUM, Strain/Indicator: TA100, Metabolic Activation: NONE, Method: PREINCUBATION
# [5] = Test System: AMES SALMONELLA TYPHIMURIUM, Strain/Indicator: TA98, Metabolic Activation: NONE, Method: PREINCUBATION
smiles,measurement,setting,value
c1cncc(-c2cccnc2)c1,mutagenic call,"Test System: AMES SALMONELLA TYPHIMURIUM, Strain/Indicator: TA97, Metabolic Activation: RAT, LIVER, S-9, PHENOBARBITAL, Method: STANDARD PLATE",inactive; negative
same,mutagenic call,"Test System: AMES SALMONELLA TYPHIMURIUM, Strain/Indicator: TA98, Metabolic Activation: RAT, LIVER, S-9, PHENOBARBITAL, Method: STANDARD PLATE",inactive; negative
same,mutagenic call,"Test System: AMES SALMONELLA TYPHIMURIUM, Strain/Indicator: TA100, Metabolic Activation: RAT, LIVER, S-9, PHENOBARBITAL, Method: STANDARD PLATE",active; positive
same,mutagenic call,"Test System: AMES SALMONELLA TYPHIMURIUM, Strain/Indicator: TA1535, Metabolic Activation: RAT, LIVER, S-9, PHENOBARBITAL, Method: STANDARD PLATE",inactive; negative
same,mutagenic call,"Test System: AMES SALMONELLA TYPHIMURIUM, Strain/Indicator: TA1537, Metabolic Activation: RAT, LIVER, S-9, PHENOBARBITAL, Method: STANDARD PLATE",inactive; negative
same,mutagenic call,"Test System: AMES SALMONELLA TYPHIMURIUM, Strain/Indicator: TA1538, Metabolic Activation: RAT, LIVER, S-9, PHENOBARBITAL, Method: STANDARD PLATE",active; positive
CC(Br)C(=O)N(C)Cc1ccccc1 (centres undefined),mutagenic call,"Test System: AMES SALMONELLA TYPHIMURIUM, Strain/Indicator: TA100, Metabolic Activation: MOUSE, LIVER, S-9, AROCLOR 1254, Method: STANDARD PLATE",inactive; negative
same,mutagenic call,[1],inactive; negative
CCCCCCCCCCCCCCCC(=O)OC/C=C(C)/C=C/C=C(C)/C=C/C1=C(C)CCCC1(C)C,mutagenic call,"End Point: IN VIVO CHROMOSOMAL ABERRATIONS, Test System: BONE MARROW CELLS, Species: RAT, Strain/Sex: WISTAR/MALE, FEMALE, Route: ORAL (GAVAGE)",active; positive (structural changes; abnormal metaphase)
same,mutagenic call,"End Point: IN VIVO CHROMOSOMAL ABERRATIONS, Test System: BONE MARROW, Species: RAT, Strain/Sex: WISTAR/MALE, FEMALE, Route: GAVAGE",active; positive (structural changes)
same,mutagenic call,"End Point: IN VIVO MICRONUCLEUS, Test System: BONE MARROW POLYCHROMATIC ERYTHROCYTES, Species: MOUSE, Strain/Sex: DDY/MALE, Route: IP",inactive; negative
same,mutagenic call,"Test System: AMES SALMONELLA TYPHIMURIUM, Strain/Indicator: TA98, Metabolic Activation: NONE, Method: STANDARD PLATE",inactive; negative
same,mutagenic call,[2],inactive; negative
same,mutagenic call,[1],inactive; negative
same,mutagenic call,[3],inactive; negative
same,mutagenic call,"Test System: AMES SALMONELLA TYPHIMURIUM, Strain/Indicator: TA1535, Metabolic Activation: NONE, Method: STANDARD PLATE",inactive; negative
same,mutagenic call,"Test System: AMES SALMONELLA TYPHIMURIUM, Strain/Indicator: TA1535, Metabolic Activation: RAT, LIVER, S-9, AROCLOR 1254, Method: STANDARD PLATE",inactive; negative
same,mutagenic call,"Test System: AMES SALMONELLA TYPHIMURIUM, Strain/Indicator: TA1537, Metabolic Activation: NONE, Method: STANDARD PLATE",inactive; negative
same,mutagenic call,"Test System: AMES SALMONELLA TYPHIMURIUM, Strain/Indicator: TA1537, Metabolic Activation: RAT, LIVER, S-9, AROCLOR 1254, Method: STANDARD PLATE",inactive; negative
same,mutagenic call,"Test System: AMES SALMONELLA TYPHIMURIUM, Strain/Indicator: TA1538, Metabolic Activation: NONE, Method: STANDARD PLATE",inactive; negative
same,mutagenic call,"Test System: AMES SALMONELLA TYPHIMURIUM, Strain/Indicator: TA1538, Metabolic Activation: RAT, LIVER, S-9, AROCLOR 1254, Method: STANDARD PLATE",inactive; negative
same,mutagenic call,"Test System: E. COLI, Strain/Indicator: WP2, Metabolic Activation: NONE, Method: STANDARD PLATE",inactive; negative
same,mutagenic call,"Test System: E. COLI, Strain/Indicator: WP2, Metabolic Activation: RAT, LIVER, S-9, AROCLOR 1254, Method: STANDARD PLATE",inactive; negative
C[Si](C)(C)CN=[N+]=[N-],mutagenic call,[4],inactive; negative
same,mutagenic call,"Test System: AMES SALMONELLA TYPHIMURIUM, Strain/Indicator: TA100, Metabolic Activation: RAT, LIVER, S-9, PCB, Method: PREINCUBATION",active; positive
CN(C)S(=O)(=O)N(SC(F)(Cl)Cl)c1ccccc1,mutagenic call,"Test System: AMES SALMONELLA TYPHIMURIUM, Strain/Indicator: TA102, Metabolic Activation: NONE, Method: STANDARD PLATE",inactive; negative
same,mutagenic call,"Test System: AMES SALMONELLA TYPHIMURIUM, Strain/Indicator: TA102, Metabolic Activation: RAT, LIVER, S-9, PHENOBARBITAL, Method: STANDARD PLATE",inactive; negative
same,mutagenic call,"Test System: AMES SALMONELLA TYPHIMURIUM, Strain/Indicator: TA104, Metabolic Activation: NONE, Method: STANDARD PLATE",inactive; negative
same,mutagenic call,"Test System: AMES SALMONELLA TYPHIMURIUM, Strain/Indicator: TA104, Metabolic Activation: RAT, LIVER, S-9, PHENOBARBITAL, Method: STANDARD PLATE",inactive; negative
same,mutagenic call,"Test System: E. COLI, Strain/Indicator: WP2HCR, Metabolic Activation: NONE, Method: STANDARD PLATE",active; positive
same,mutagenic call,"Test System: E. COLI, Strain/Indicator: WP2HCR, Metabolic Activation: S-9 MIX, Method: STANDARD PLATE",inactive; negative
CN(N)c1ccn([C@@H]2O[C@H](CO)[C@@H](O)[C@H]2O)c(=O)n1,mutagenic call,"Test System: CHINESE HAMSTER V-79, Strain/Indicator: V-79/6-THIOGUANINE, Metabolic Activation: NONE, Method: REPLATING",inactive; negative
Cc1ccc2c(C)c3ccc4c(c3nc2c1)C=C[C@H](O)[C@H]4O,mutagenic call,[3],active; positive
OCCCCl,mutagenic call,"Test System: AMES SALMONELLA TYPHIMURIUM, Strain/Indicator: TA97, Metabolic Activation: HAMSTER, LIVER, S-9, AROCLOR 1254 (10%), Method: PREINCUBATION",inactive; negative
same,mutagenic call,"Test System: AMES SALMONELLA TYPHIMURIUM, Strain/Indicator: TA97, Metabolic Activation: NONE, Method: PREINCUBATION",inactive; negative
same,mutagenic call,"Test System: AMES SALMONELLA TYPHIMURIUM, Strain/Indicator: TA97, Metabolic Activation: RAT, LIVER, S-9, AROCLOR 1254 (10%), Method: PREINCUBATION",inactive; negative
same,mutagenic call,"Test System: AMES SALMONELLA TYPHIMURIUM, Strain/Indicator: TA98, Metabolic Activation: HAMSTER, LIVER, S-9, AROCLOR 1254 (10%), Method: PREINCUBATION",inactive; negative
same,mutagenic call,[5],inactive; negative
same,mutagenic call,"Test System: AMES SALMONELLA TYPHIMURIUM, Strain/Indicator: TA98, Metabolic Activation: RAT, LIVER, S-9, AROCLOR 1254 (10%), Method: PREINCUBATION",inactive; negative
same,mutagenic call,"Test System: AMES SALMONELLA TYPHIMURIUM, Strain/Indicator: TA100, Metabolic Activation: HAMSTER, LIVER, S-9, AROCLOR 1254 (10%), Method: PREINCUBATION",inactive; negative
same,mutagenic call,[4],inactive; negative
same,mutagenic call,"Test System: AMES SALMONELLA TYPHIMURIUM, Strain/Indicator: TA100, Metabolic Activation: RAT, LIVER, S-9, AROCLOR 1254 (10%), Method: PREINCUBATION",inactive; negative
same,mutagenic call,"Test System: AMES SALMONELLA TYPHIMURIUM, Strain/Indicator: TA1535, Metabolic Activation: HAMSTER, LIVER, S-9, AROCLOR 1254 (10%), Method: PREINCUBATION",active; positive
same,mutagenic call,"Test System: AMES SALMONELLA TYPHIMURIUM, Strain/Indicator: TA1535, Metabolic Activation: NONE, Method: PREINCUBATION",inactive; negative
same,mutagenic call,"Test System: AMES SALMONELLA TYPHIMURIUM, Strain/Indicator: TA1535, Metabolic Activation: RAT, LIVER, S-9, AROCLOR 1254 (10%), Method: PREINCUBATION",active; positive
CCc1ccccc1N,mutagenic call,[5],inactive; negative
same,mutagenic call,"Test System: AMES SALMONELLA TYPHIMURIUM, Strain/Indicator: TA98, Metabolic Activation: S-9, Method: PREINCUBATION",inactive; negative
same,mutagenic call,[4],inactive; negative
same,mutagenic call,"Test System: AMES SALMONELLA TYPHIMURIUM, Strain/Indicator: TA100, Metabolic Activation: S-9, Method: PREINCUBATION",inactive; negative
same,mutagenic call,"Test System: UDS RODENT HEPATOCYTES, Strain/Indicator: THY INCORP (NON-S-PHASE), Metabolic Activation: NONE, Method: AUTORADIOGRAPHY",inactive; negative
CCN(CC)CC(=O)Nc1c(C(=O)c2ccccc2F)c(C)nn1C,mutagenic call,"Test System: AMES SALMONELLA TYPHIMURIUM, Strain/Indicator: TA98, Metabolic Activation: RAT, LIVER, S-9, AROCLOR 1254, Method: PREINCUBATION",active; positive
same,mutagenic call,[2],inactive; negative
same,mutagenic call,"Test System: AMES SALMONELLA TYPHIMURIUM, Strain/Indicator: TA100, Metabolic Activation: RAT, LIVER, S-9, AROCLOR 1254, Method: PREINCUBATION",active; positive
same,mutagenic call,[3],inactive; negative
